From patent publication US20090143279A1 (priority 2007, published 2009)
Where two headings read alike, the source gives them in different places. Where a SMILES comes first, the peptide text is derived from it. Bridges are numbered along the chain shown (N, C = ends). [ ]: non-standard residue; d: D form. The star is where a group is joined. Ileψ(thiazoline)Cys = CC[C@H](C)[C@H](N)C1=N[C@H](C(=O)*)CS1; dOrn = NCCC[C@@H](N)C(=O)O

Assays:
cytochrome c = type: cell-based, mouse
nuOXPHOS transcripts = type: cell-based, mouse
mtOXPHOS transcripts = type: cell-based, mouse
OXPHOS gene expression = type: cell-based, mouse
[1] = tested on: mitochondrial membrane potential; type: cell-based, mouse
reactive oxygen species = type: cell-based, mouse
[2] = tested on: cellular dehydrogenase activity
[3] = 20 μM, composite Z-score vs DMSO
[4] = composite Z-score vs mock-treated (DMSO) wells, concentration of each compound in μM
[5] = Conc 20 μM, normalized score vs mock-treated (DMSO) wells
[6] = composite Z-score vs DMSO, Conc 20 μM
[7] = normalized composite Z-score vs mock-treated (DMSO) wells, Conc 20 μM
[8] = Table 4, C2C12 myotubes, 48 h, composite Z-score
[9] = Table 4, C2C12 myotubes, 48 h, JC-1, composite Z-score
[10] = composite Z-score vs DMSO wells, Conc 20 μM

CC[C@H](C)[C@H](N)C1=N[C@H](C(=O)N[C@@H](CC(C)C)C(=O)N[C@H](CCC(=O)O)C(=O)N[C@H](C(=O)N[C@H]2CCCCNC(=O)[C@H](CC(N)=O)NC(=O)[C@@H](CC(=O)O)NC(=O)[C@H](Cc3cnc[nH]3)NC(=O)[C@@H](Cc3ccccc3)NC(=O)[C@H]([C@@H](C)CC)NC(=O)[C@@H](CCCN)NC2=O)[C@@H](C)CC)CS1 [bacitracin] ({Ileψ(thiazoline)Cys}-L[dE]IK[dOrn]I[dF]H[dD]N; lactam 4-C)
Viability (C2C12 myotubes; [3]): −0.312
Viability (C2C12 myotubes; [4]): −0.938
cyt c (cytochrome c; [3]): 0.305
cyt c (cytochrome c; [4]): −0.806
nucOX (nuOXPHOS transcripts; [3]): 1.374
nucOX (nuOXPHOS transcripts; [4]): −0.736
mitoOX (mtOXPHOS transcripts; [3]): 0.798
mitoOX (mtOXPHOS transcripts; [4]): −0.189
GE-HTS (OXPHOS gene expression; [3]): 1.271
GE-HTS (OXPHOS gene expression; [4]): −0.592
ΔΨm [1, 3]: −0.113
ΔΨm [1, 4]: −0.214
ROS (reactive oxygen species; [3]): 1.177
ROS (reactive oxygen species; [4]): 0.105
MTT [2, 3]: −0.826
MTT [2, 4]: −0.310

COc1cc2c3cc1Oc1cc(ccc1O)CC1c4c(cc(OC)c(O)c4Oc4ccc(cc4)CC3N(C)CC2)CCN1C (stereo not drawn) [bebeerine]
Viability (composite Z-score) (C2C12 myotubes; [5]): −0.728
cyt c (composite Z-score) (cytochrome c; [5]): 0.389
nucOX (composite Z-score) (nuOXPHOS transcripts; [5]): −0.028
mitoOX (composite Z-score) (mtOXPHOS transcripts; [5]): 0.119
GE-HTS (composite Z-score) (OXPHOS gene expression; [5]): −0.005
ΔΨm (composite Z-score) [1, 5]: −0.800
ROS (composite Z-score) (reactive oxygen species; [5]): 0.759
MTT (composite Z-score) [2, 5]: −1.681

COc1cc2c3cc1Oc1c(OC)c(OC)cc4c1[C@@H](Cc1ccc(O)c(c1)Oc1ccc(cc1)C[C@@H]3N(C)CC2)N(C)CC4 [berbamine]
Viability (C2C12 myotubes; [6]): −1.126
cyt c (cytochrome c; [6]): 0.445
nucOX (nuOXPHOS transcripts; [6]): −0.166
mitoOX (mtOXPHOS transcripts; [6]): −0.636
GE-HTS (OXPHOS gene expression; [6]): −0.345
ΔΨm [1, 6]: −0.289
ROS (reactive oxygen species; [6]): 0.153
MTT [2, 6]: −1.021

CC12CCCC(O)(C1)C1CC(C)(C)C1CC2 (stereo not drawn) [beta-caryophyllene alcohol]
Viability (C2C12 myotubes; [7]): −0.960
cyt c (cytochrome c; [7]): −1.030
nucOX (nuOXPHOS transcripts; [7]): 0.105
mitoOX (mtOXPHOS transcripts; [7]): 0.264
GE-HTS (OXPHOS gene expression; [7]): 0.155
ΔΨm [1, 7]: −0.433
ROS (reactive oxygen species; [7]): 1.180
MTT [2, 7]: −1.859

COc1cc2c(cc1OC)[C@@H]1C(=O)c3ccc4c(c3O[C@@H]1CO2)CC(C(C)C)O4 (stereo partly drawn) [beta-dihydrorotenone, reference compound]
Viability (C2C12 myotubes; [8]): −0.184
Viability (C2C12 myotubes; [6]): −0.184
cyt c (cytochrome c; [6]): −0.408
nucOX (nuOXPHOS transcripts; [6]): −0.828
mitoOX (mtOXPHOS transcripts; [6]): −0.695
GE-HTS (OXPHOS gene expression; [6]): −0.818
ΔΨm [1, 9]: 1.079
ΔΨm [1, 6]: 1.079
ROS (reactive oxygen species; [8]): 0.122
ROS (reactive oxygen species; [6]): 0.122
MTT [2, 8]: −2.771
MTT [2, 6]: −2.771

COc1cc2c(cc1OC)C1C(=O)c3c(cc4c(c3O)C=CC(C)(C)O4)OC1CO2 (stereo not drawn) [beta-toxicarol, reference compound]
Viability (C2C12 myotubes; [8]): 0.672
Viability (C2C12 myotubes; [7]): 0.672
cyt c (cytochrome c; [7]): −0.239
nucOX (nuOXPHOS transcripts; [7]): −1.773
mitoOX (mtOXPHOS transcripts; [7]): −0.627
GE-HTS (OXPHOS gene expression; [7]): −1.508
ΔΨm [1, 9]: 0.899
ΔΨm [1, 7]: 0.899
ROS (reactive oxygen species; [8]): −0.188
ROS (reactive oxygen species; [7]): −0.188
MTT [2, 8]: −1.498
MTT [2, 7]: −1.498

CNCCc1ccccn1 [betahistine]
Viability (C2C12 myotubes; [10]): 1.068
cyt c (cytochrome c): 0.296
cyt c (cytochrome c; [10]): 0.386
nucOX (nuOXPHOS transcripts; [10]): −0.008
mitoOX (mtOXPHOS transcripts; [10]): −0.718
GE-HTS (OXPHOS gene expression; [10]): −0.284
ΔΨm [1, 10]: 0.125
ROS (reactive oxygen species; [10]): −0.176
MTT [2, 10]: 0.861

C[N+](C)(C)CC(=O)O [betaine]
Viability (C2C12 myotubes): 0.548
cyt c (cytochrome c): −0.998
nucOX (nuOXPHOS transcripts): 0.354
mitoOX (mtOXPHOS transcripts): 0.604
GE-HTS (OXPHOS gene expression): 0.478
ΔΨm [1]: 0.345
ROS (reactive oxygen species): −0.348
MTT [2]: 1.036

C[C@H]1C[C@H]2[C@@H]3CCC4=CC(=O)C=C[C@]4(C)[C@@]3(F)[C@@H](O)C[C@]2(C)[C@@]1(O)C(=O)CO [betamethasone]
Viability (composite Z-score) (C2C12 myotubes): −0.984
cyt c (composite Z-score) (cytochrome c): 0.130
nucOX (composite Z-score) (nuOXPHOS transcripts): 0.633
mitoOX (composite Z-score) (mtOXPHOS transcripts): 0.853
GE-HTS (composite Z-score) (OXPHOS gene expression): 0.740
ΔΨm (composite Z-score) [1]: 0.849
ROS (composite Z-score) (reactive oxygen species): 0.541
MTT (composite Z-score) [2]: −1.063

C=C(C)[C@@H]1CC[C@]2(C(=O)O)CC[C@]3(C)[C@H](CC[C@@H]4[C@@]5(C)CC[C@H](O)C(C)(C)[C@@H]5CC[C@]43C)[C@@H]12 [betulinic acid]
Viability (C2C12 myotubes; [6]): 0.850
cyt c (cytochrome c; [6]): 0.481
nucOX (nuOXPHOS transcripts; [6]): 0.069
mitoOX (mtOXPHOS transcripts; [6]): 0.259
GE-HTS (OXPHOS gene expression; [6]): 0.145
ΔΨm [1, 6]: −1.220
ROS (reactive oxygen species; [6]): 0.202
MTT [2, 6]: −2.381

C=CC1=C(C)/C(=C/c2[nH]c(Cc3[nH]c(/C=C4\NC(=O)C(C)=C4C=C)c(C)c3CCC(=O)O)c(CCC(=O)O)c2C)NC1=O [bilirubin]
Viability (composite Z-score) (C2C12 myotubes; [5]): −0.649
cyt c (composite Z-score) (cytochrome c; [5]): 1.004
nucOX (composite Z-score) (nuOXPHOS transcripts; [5]): 0.250
mitoOX (composite Z-score) (mtOXPHOS transcripts; [5]): 0.427
GE-HTS (composite Z-score) (OXPHOS gene expression; [5]): 0.312
ΔΨm (composite Z-score) [1, 5]: −1.837
ROS (composite Z-score) (reactive oxygen species; [5]): 0.249
MTT (composite Z-score) [2, 5]: −1.287

COc1ccc(-c2coc3cc(O)cc(O)c3c2=O)cc1 [biochanin A]
Viability (composite Z-score) (C2C12 myotubes; [5]): 0.987
cyt c (composite Z-score) (cytochrome c; [5]): −0.416
nucOX (composite Z-score) (nuOXPHOS transcripts; [5]): −0.459
mitoOX (composite Z-score) (mtOXPHOS transcripts; [5]): −0.042
GE-HTS (composite Z-score) (OXPHOS gene expression; [5]): −0.324
ΔΨm (composite Z-score) [1, 5]: 0.033
ROS (composite Z-score) (reactive oxygen species; [5]): 0.623
MTT (composite Z-score) [2, 5]: −0.325

OC(CCN1CCCCC1)(c1ccccc1)C1CC2C=CC1C2 (stereo not drawn) [biperiden]
Viability (C2C12 myotubes): 0.740
cyt c (cytochrome c): 0.053
nucOX (nuOXPHOS transcripts): −0.496
mitoOX (mtOXPHOS transcripts): −1.312
GE-HTS (OXPHOS gene expression): −0.817
ΔΨm [1]: −0.517
ROS (reactive oxygen species): 2.725
MTT [2]: −0.886

CC(C)=CCC[C@](C)(O)C1CC=C(C)CC1 (stereo partly drawn) [bisabolol]
Viability (C2C12 myotubes; [6]): 0.300
cyt c (cytochrome c; [6]): 0.738
nucOX (nuOXPHOS transcripts; [6]): −0.983
mitoOX (mtOXPHOS transcripts; [6]): −0.690
GE-HTS (OXPHOS gene expression; [6]): −0.963
ΔΨm [1, 6]: −0.234
ROS (reactive oxygen species; [6]): 0.061
MTT [2, 6]: 0.031

CCc1ccc2c(O)c3c(cc2c1C(=O)OC)C(=O)c1c(O)ccc(O)c1C3=O [bisanhydrorutilantinone]
Viability (C2C12 myotubes; [6]): −0.493
cyt c (cytochrome c; [6]): 0.148
nucOX (nuOXPHOS transcripts; [6]): −0.268
mitoOX (mtOXPHOS transcripts; [6]): −1.532
GE-HTS (OXPHOS gene expression; [6]): −0.727
ΔΨm [1, 6]: −2.223
ROS (reactive oxygen species; [6]): 0.236
MTT [2, 6]: −1.755

Oc1c(Cl)cc(Cl)cc1Sc1cc(Cl)cc(Cl)c1O [bithionol]
Viability (C2C12 myotubes; [10]): −2.247
cyt c (cytochrome c; [10]): −2.613
nucOX (nuOXPHOS transcripts; [10]): −1.261
mitoOX (mtOXPHOS transcripts; [10]): −1.838
GE-HTS (OXPHOS gene expression; [10]): −1.531
ΔΨm [1, 10]: −2.723
ROS (reactive oxygen species; [10]): 1.449
MTT [2, 10]: 0.593

CC(C)C[C@H]1C(=O)N2CCC[C@H]2[C@]2(O)O[C@](NC(=O)[C@@H]3C=C4c5cccc6[nH]c(Br)c(c56)C[C@H]4N(C)C3)(C(C)C)C(=O)N12 [bromocriptine]
Viability (C2C12 myotubes; [3]): 1.142
cyt c (cytochrome c; [3]): −0.064
nucOX (nuOXPHOS transcripts; [3]): 0.199
mitoOX (mtOXPHOS transcripts; [3]): −0.322
GE-HTS (OXPHOS gene expression; [3]): 0.006
ΔΨm [1, 3]: 0.037
ROS (reactive oxygen species; [3]): 0.176
MTT [2, 3]: −1.667
